Measured values from PMC9596378, “Discovery and molecular basis of subtype-selective cyclophilin inhibitors” (Nature Chemical Biology, 2022).
“And” between values parts separate entries of the source, which are not always exact repeats. Equal entries are not always repeated. Where two headings read alike, the source gives them in different places.

How the values were obtained:
Assay in all cases: Chymotrypsin coupled prolyl-isomerase assay
Format in all cases: biochemical
[1] = molecular target: T1, CypA (Homo sapiens, UniProt P62937)
T1 construct: PPIA (UniProtKB Entry P62937: residues 1–165); made in house; host or cells: E. coli BL21(DE3)
Summary of the method: (§1)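 Recombinant cyclophilin (5 nM final) in 25 mM HEPES pH 7.3, 100 mM NaCl, 0.01% Triton X-100 was preincubated with compound at 2–3 °C. It was then coupled with 25 µM α-chymotrypsin and 5 µM Suc-AAPF-AMC (LiCl/TFE), and AMC fluorescence was followed for 330 s.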

[2] = molecular target: T2, CypC (Homo sapiens, UniProt P45877)
T2 construct: PPIC (UniProtKB Entry P45877: residues 24–212); host or cells: E. coli BL21(DE3)
Summary of the method: as §1

[3] = molecular target: T3, CypE (Homo sapiens, UniProt Q9UNP9)
T3 construct: PPIE (UniProtKB Entry Q9UNP9: residues 131–301); host or cells: E. coli BL21(DE3)
Summary of the method: as §1

[4] = molecular target: T4, CypG (Homo sapiens, UniProt Q13427)
T4 construct: PPIG (UniProtKB Entry Q13427: residues 1–179); His6 with thrombin site (pET28a LIC leader) (N); host or cells: E. coli BL21(DE3)
T4 sequence (Q13427 1-179): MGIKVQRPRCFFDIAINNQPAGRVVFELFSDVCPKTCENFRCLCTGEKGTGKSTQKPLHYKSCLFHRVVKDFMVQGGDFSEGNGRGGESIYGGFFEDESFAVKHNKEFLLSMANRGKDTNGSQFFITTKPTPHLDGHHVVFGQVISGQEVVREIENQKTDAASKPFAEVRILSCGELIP
Summary of the method: as §1

[5] = molecular target: T5, CypH (Homo sapiens, UniProt O43447)
T5 construct: PPIH (UniProtKB Entry O43447: residues 1–177); His6 with TEV site (2BT vector leader) (N); made in house; host or cells: E. coli BL21(DE3)
Summary of the method: as §1

T1 sequence (P62937 whole entry, the tested form may be a part): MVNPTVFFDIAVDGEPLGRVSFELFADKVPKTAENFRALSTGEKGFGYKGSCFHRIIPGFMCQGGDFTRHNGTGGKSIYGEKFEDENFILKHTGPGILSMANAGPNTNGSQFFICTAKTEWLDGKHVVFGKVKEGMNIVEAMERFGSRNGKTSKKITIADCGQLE
T5 sequence (O43447 whole entry, the tested form may be a part): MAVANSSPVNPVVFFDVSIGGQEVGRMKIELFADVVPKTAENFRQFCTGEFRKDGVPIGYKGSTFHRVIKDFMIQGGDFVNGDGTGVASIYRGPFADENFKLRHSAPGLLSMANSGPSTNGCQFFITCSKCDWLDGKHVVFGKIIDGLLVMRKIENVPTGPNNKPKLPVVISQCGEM
T2 sequence (P45877 24-212): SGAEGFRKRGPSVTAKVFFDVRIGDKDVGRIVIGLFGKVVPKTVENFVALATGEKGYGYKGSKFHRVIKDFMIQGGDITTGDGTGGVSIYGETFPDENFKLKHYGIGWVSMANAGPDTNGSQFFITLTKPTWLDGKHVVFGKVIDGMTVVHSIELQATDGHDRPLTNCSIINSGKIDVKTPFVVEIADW
T3 sequence (Q9UNP9 131-301): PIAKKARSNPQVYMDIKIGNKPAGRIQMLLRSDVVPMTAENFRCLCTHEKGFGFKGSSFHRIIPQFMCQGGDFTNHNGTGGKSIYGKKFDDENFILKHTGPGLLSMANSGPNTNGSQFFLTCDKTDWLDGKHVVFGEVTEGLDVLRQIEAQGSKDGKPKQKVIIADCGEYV

**Q.** For `NC(=O)C1CCNC(=O)C=CC(=O)N2CCCC(Cc3ccccc3)(C2)C(=O)NC(Cc2ccc(-c3ccc(C=O)c(B(O)O)c3)cc2)C(=O)NCc2ccccc2CC(=O)N1` (stereo not shown) [Compound C3A], which “CypA prolyl-isomerase raw dose-response reading (Fig. 6c)” value ([1]; Dose 0.00114312 µM) is on record?
**A.** The value was 0.07306 and 0.07874 and 0.07172.

**Q.** What about the “CypA prolyl-isomerase raw dose-response reading (Fig. 6c)” value ([1]; Dose 0.00342936 µM) of the same compound?
**A.** Its value is 0.06275 and 0.05859.

**Q.** What about the “CypA prolyl-isomerase raw dose-response reading (Fig. 6c)” value ([1]; Dose 0.0102881 µM) of the same compound?
**A.** Its value is 0.07757 and 0.05083 and 0.08593.

**Q.** And the “CypA prolyl-isomerase raw dose-response reading (Fig. 6c)” value ([1]; Dose 0.0308642 µM)?
**A.** Its value is 0.09366 and 0.07648 and 0.07092.

**Q.** And the “CypA prolyl-isomerase raw dose-response reading (Fig. 6c)” value ([1]; Dose 0.0925926 µM)?
**A.** The value was 0.1069 and 0.06289 and 0.07689.

**Q.** And the “CypA prolyl-isomerase raw dose-response reading (Fig. 6c)” value ([1]; Dose 0.205761 µM)?
**A.** The value was 0.06396 and 0.05394 and 0.06349 and 0.0486 and 0.04768 and 0.0647 and 0.04401 and 0.05288.

**Q.** What about the “CypA prolyl-isomerase raw dose-response reading (Fig. 6c)” value ([1]; Dose 0.277778 µM) of the same compound?
**A.** Its value is 0.09488 and 0.06 and 0.09425.

**Q.** And the “CypA prolyl-isomerase raw dose-response reading (Fig. 6c)” value ([1]; Dose 0.833333 µM)?
**A.** Its value is 0.06403 and 0.06231 and 0.07443.

**Q.** What about the “CypA prolyl-isomerase raw dose-response reading (Fig. 6c)” value ([1]; Dose 2.5 µM) of the same compound?
**A.** The value was 0.06101 and 0.05306 and 0.05126.

**Q.** And the IC50 ([1]; Independent replicate 1, read-out: IC50 CypA)?
**A.** Its IC50 is ~3 µM.

**Q.** What about the IC50 ([1]; Independent replicate 2, read-out: IC50 CypA) of the same compound?
**A.** Its IC50 is 2.2 ± 0.7 µM.

**Q.** And the IC50 ([1]; Independent replicate 3, read-out: IC50 CypA)?
**A.** Its IC50 is 1.6 ± 0.7 µM.

**Q.** What about the IC50 ([1]; Independent replicate 4, read-out: IC50 CypA) of the same compound?
**A.** Its IC50 is 4 ± 2 µM.

**Q.** And the IC50 ([1]; wild-type CypA, read-out: Wild-Type Cyclophilin Prolyl Isomerase Inhibition IC50 Values, CypA)?
**A.** The IC50 was 3 µM.

**Q.** And the “CypC prolyl-isomerase raw dose-response reading (Fig. 6c)” value ([2]; Dose 0.00457247 µM)?
**A.** The value was 0.03895 and 0.0375.

**Q.** And the “CypC prolyl-isomerase raw dose-response reading (Fig. 6c)” value ([2]; Dose 0.0137174 µM)?
**A.** Its value is 0.04174 and 0.04247 and 0.04306.

**Q.** And the “CypC prolyl-isomerase raw dose-response reading (Fig. 6c)” value ([2]; Dose 0.0411523 µM)?
**A.** Its value is 0.05121 and 0.04011 and 0.04386.

**Q.** And the “CypC prolyl-isomerase raw dose-response reading (Fig. 6c)” value ([2]; Dose 0.123457 µM)?
**A.** Its value is 0.05033 and 0.03342 and 0.04085.

**Q.** And the “CypC prolyl-isomerase raw dose-response reading (Fig. 6c)” value ([2]; Dose 0.37037 µM)?
**A.** The value was 0.03932 and 0.03966 and 0.05738.

**Q.** What about the “CypC prolyl-isomerase raw dose-response reading (Fig. 6c)” value ([2]; Dose 1.11111 µM) of the same compound?
**A.** Its value is 0.0536 and 0.03667 and 0.04316.

**Q.** What about the “CypC prolyl-isomerase raw dose-response reading (Fig. 6c)” value ([2]; Dose 3.33333 µM) of the same compound?
**A.** The value was 0.03577 and 0.0377 and 0.04529.

**Q.** And the “CypC prolyl-isomerase raw dose-response reading (Fig. 6c)” value ([2]; Dose 10 µM)?
**A.** Its value is 0.03905 and 0.04054 and 0.0318.

**Q.** What about the IC50 ([2]; Independent replicate 1, read-out: IC50 CypC) of the same compound?
**A.** The IC50 was > 10 µM.

**Q.** What about the IC50 ([2]; Independent replicate 2, read-out: IC50 CypC) of the same compound?
**A.** The IC50 was 15 ± 4 µM.

**Q.** What about the IC50 ([2]; Independent replicate 3, read-out: IC50 CypC) of the same compound?
**A.** Its IC50 is 20 ± 10 µM.

**Q.** What about the IC50 ([2]; Independent replicate 4, read-out: IC50 CypC) of the same compound?
**A.** The IC50 was 19 ± 9 µM.

**Q.** And the IC50 ([2]; wild-type CypC, read-out: Wild-Type Cyclophilin Prolyl Isomerase Inhibition IC50 Values, CypC)?
**A.** Its IC50 is 17 µM.

**Q.** And the “higher CypE inhibition potency of C3A over C5A” value [3]?
**A.** The value was 75 fold.

**Q.** And the “selectivity for CypE over CypA” value [3]?
**A.** The value was > 100 fold.

**Q.** And the IC50 ([3]; Independent replicate 1, read-out: IC50 CypE)?
**A.** Its IC50 is 13 ± 3 nM.

**Q.** What about the IC50 ([3]; Independent replicate 2, read-out: IC50 CypE) of the same compound?
**A.** The IC50 was 18 ± 6 nM.

**Q.** And the IC50 ([3]; Independent replicate 3, read-out: IC50 CypE)?
**A.** The IC50 was 9 ± 2 nM.

**Q.** What about the IC50 ([3]; Independent replicate 4, read-out: IC50 CypE) of the same compound?
**A.** The IC50 was 12 ± 4 nM.

**Q.** What about the “selectivity for CypE over the other cyclophilins screened” value ([3]; prolyl-isomerase IC50) of the same compound?
**A.** Its value is 30- to 4,000 fold.

**Q.** And the IC50 ([3]; prolyl-isomerase inhibition, 5 nM cyclophilin, read-out: IC50 CypE)?
**A.** The IC50 was 13 ± 4 nM.

**Q.** What about the IC50 ([3]; prolyl-isomerase inhibition, read-out: IC50 CypE) of the same compound?
**A.** Its IC50 is 13 nM.

**Q.** What about the IC50 ([3]; wild-type CypE, read-out: Wild-Type Cyclophilin Prolyl Isomerase Inhibition IC50 Values, CypE) of the same compound?
**A.** Its IC50 is 13 nM.

**Q.** And the “CypG prolyl-isomerase raw dose-response reading (Fig. 6c)” value ([4]; Dose 0.00457247 µM)?
**A.** The value was 0.04675 and 0.05256 and 0.06278.

**Q.** What about the “CypG prolyl-isomerase raw dose-response reading (Fig. 6c)” value ([4]; Dose 0.0137174 µM) of the same compound?
**A.** The value was 0.05042 and 0.05542 and 0.04906.

**Q.** And the “CypG prolyl-isomerase raw dose-response reading (Fig. 6c)” value ([4]; Dose 0.0411523 µM)?
**A.** Its value is 0.05063 and 0.04839 and 0.04139.

**Q.** What about the “CypG prolyl-isomerase raw dose-response reading (Fig. 6c)” value ([4]; Dose 0.123457 µM) of the same compound?
**A.** The value was 0.04982 and 0.05395 and 0.05565.

**Q.** What about the “CypG prolyl-isomerase raw dose-response reading (Fig. 6c)” value ([4]; Dose 0.37037 µM) of the same compound?
**A.** Its value is 0.04159 and 0.05179 and 0.03978.

**Q.** And the “CypG prolyl-isomerase raw dose-response reading (Fig. 6c)” value ([4]; Dose 1.11111 µM)?
**A.** Its value is 0.05731 and 0.0555 and 0.05308.

**Q.** What about the “CypG prolyl-isomerase raw dose-response reading (Fig. 6c)” value ([4]; Dose 3.33333 µM) of the same compound?
**A.** The value was 0.04975 and 0.046 and 0.05109.

**Q.** And the “CypG prolyl-isomerase raw dose-response reading (Fig. 6c)” value ([4]; Dose 10 µM)?
**A.** The value was 0.05239 and 0.04081 and 0.048.

**Q.** And the IC50 ([4]; Independent replicate 1, read-out: IC50 CypG)?
**A.** Its IC50 is > 10 µM.

**Q.** And the IC50 ([4]; Independent replicate 2, read-out: IC50 CypG)?
**A.** Its IC50 is ~40 µM.

**Q.** And the IC50 ([4]; Independent replicate 3, read-out: IC50 CypG)?
**A.** Its IC50 is ~26 µM.

**Q.** And the IC50 ([4]; Independent replicate 4, read-out: IC50 CypG)?
**A.** Its IC50 is ~50 µM.

**Q.** What about the IC50 ([4]; wild-type CypG, read-out: Wild-Type Cyclophilin Prolyl Isomerase Inhibition IC50 Values, CypG) of the same compound?
**A.** Its IC50 is 40 µM.

**Q.** What about the “CypH prolyl-isomerase raw dose-response reading (Fig. 6c)” value ([5]; Dose 0.00457247 µM) of the same compound?
**A.** The value was 0.05086 and 0.04496.

**Q.** And the “CypH prolyl-isomerase raw dose-response reading (Fig. 6c)” value ([5]; Dose 0.0137174 µM)?
**A.** Its value is 0.05594 and 0.04525 and 0.04484.
